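These data come from cells grown in 96-well plates and exposed to compound for 48 hours at five concentrations. Abbreviation: GI50, concentration required for 50% inhibition of growth.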 The source made the active and inactive calls. Cut-off read from the data, not from the text of the source: active = GI50 up to about 1.1 µM and inactive = higher.
How the values were obtained:
Assay in all cases: growth of human tumour cells (NCI), 48 h
[1] = system: 786-0
[2] = system: A498
[3] = system: A549
[4] = system: ACHN
[5] = system: BT-549
[6] = system: CAKI-1
[7] = system: CCRF-CEM
[8] = system: COLO 205
[9] = system: DU-145
[10] = system: EKVX
[11] = system: HCT-116
[12] = system: HCT-15
[13] = system: HL-60
[14] = system: HOP-62
[15] = system: HOP-92
[16] = system: HT-29
[17] = system: Hs-578T
[18] = system: IGROV-1
[19] = system: K562
[20] = system: KM12
[21] = system: LOX IMVI
[22] = system: M14
[23] = system: MDA-MB-231
[24] = system: MDA-MB-435
[25] = system: MDA-N
[26] = system: MOLT-4
[27] = system: Malme-3M
[28] = system: NCI-H226
[29] = system: NCI-H23
[30] = system: NCI-H460
[31] = system: NCI-H522
[32] = system: NCI/ADR-RES
[33] = system: OVCAR-3
[34] = system: OVCAR-4
[35] = system: OVCAR-5
[36] = system: OVCAR-8
[37] = system: PC-3
[38] = system: RPMI-8226
[39] = system: RXF 393
[40] = system: SF-268
[41] = system: SF-295
[42] = system: SF-539
[43] = system: SK-MEL-28
[44] = system: SK-MEL-2
[45] = system: SK-MEL-5
[46] = system: SK-OV-3
[47] = system: SN12C
[48] = system: SNB-19
[49] = system: SR
[50] = system: SW-620
[51] = system: T47D
[52] = system: TK-10
[53] = system: U-251
[54] = system: UACC-257
[55] = system: UACC-62
[56] = system: UO-31
[57] = system: MCF7
[58] = system: HCC 2998
[59] = system: SNB-75

Measured: GI50

O=C(NC1CCN(Cc2ccccc2)CC1)c1ccc(I)cc1
59.6 µM: [12]
inactive: [1] 97.5 µM | [2] > 100 µM | [3] 76.4 µM | [4] 96.2 µM | [5] 87.5 µM | [6] 70.1 µM | [7] 76.7 µM | [8] 21.8 µM | [9] 91.6 µM | [10] > 100 µM | [11] 39.6 µM | [13] > 100 µM | [14] 55.6 µM | [15] 34 µM | [16] 19.8 µM | [17] 33.2 µM | [18] 94 µM | [19] 42.4 µM | [20] > 100 µM | [21] > 100 µM | [22] 39 µM | [23] 19.4 µM | [24] 33.3 µM | [25] 54.6 µM | [26] > 100 µM | [27] 1.98 µM | [28] 33.4 µM | [29] 94.2 µM | [30] > 100 µM | [31] 63.5 µM | [32] > 100 µM | [33] > 100 µM | [34] > 100 µM | [35] > 100 µM | [36] > 100 µM | [37] 62.7 µM | [38] 63.5 µM | [39] 25.2 µM | [40] 63.8 µM | [41] 29.5 µM | [42] 78.3 µM | [43] 63.2 µM | [44] 75.9 µM | [45] 17.7 µM | [46] 44.1 µM | [47] > 100 µM | [48] > 100 µM | [49] > 100 µM | [50] > 100 µM | [51] > 100 µM | [52] > 100 µM | [53] 81.1 µM | [54] 45.8 µM | [55] 59.4 µM | [56] 22.9 µM

C#CC(O)(c1nc2ccccc2s1)c1nc2ccccc2s1
inactive: [1] 18.5 µM | [2] 16.9 µM | [3] 29 µM | [4] 23 µM | [5] 16.6 µM | [6] 23.5 µM | [7] 27.4 µM | [8] 17.7 µM | [9] 26.4 µM | [10] 19.3 µM | [11] 16.3 µM | [13] 21 µM | [14] 26.2 µM | [15] 16.1 µM | [16] 27.2 µM | [17] 36.4 µM | [18] 15.2 µM | [19] 45.7 µM | [20] 29.4 µM | [21] 17.8 µM | [22] 15.5 µM | [57] 22.2 µM | [23] 15.7 µM | [24] 23.1 µM | [25] 21.2 µM | [26] 28.8 µM | [27] 27 µM | [29] 20.3 µM | [31] 17.6 µM | [32] 26.2 µM | [33] 18.1 µM | [34] 25.8 µM | [35] 23.6 µM | [36] 22 µM | [37] 19 µM | [38] 21 µM | [39] 18.6 µM | [40] 28.5 µM | [41] 24 µM | [42] 17.4 µM | [43] 40.7 µM | [44] 16.7 µM | [45] 15.6 µM | [47] 17.8 µM | [48] 36.9 µM | [50] 33.7 µM | [51] 13.8 µM | [52] 36.6 µM | [53] 18.7 µM | [54] 25.1 µM | [55] 12.3 µM | [56] 15 µM
20.2 µM: [12]

C#C[C@@H](OC(=O)c1ccc([N+](=O)[O-])cc1)[C@@H]1C[C@H]2O[C@@H]([C@H](C/C=C/CC)OC(=O)c3ccc([N+](=O)[O-])cc3)C[C@H]2O1
inactive: [1] > 100 µM | [2] > 100 µM | [3] > 100 µM | [4] > 100 µM | [5] > 100 µM | [6] > 100 µM | [7] > 100 µM | [8] > 100 µM | [9] > 100 µM | [10] > 100 µM | [58] > 100 µM | [11] > 100 µM | [14] > 100 µM | [15] > 100 µM | [16] > 100 µM | [17] > 100 µM | [18] 83.4 µM | [19] > 100 µM | [20] > 100 µM | [21] > 100 µM | [22] > 100 µM | [23] > 100 µM | [24] > 100 µM | [25] > 100 µM | [26] > 100 µM | [27] > 100 µM | [28] > 100 µM | [29] > 100 µM | [30] > 100 µM | [31] 32.6 µM | [32] > 100 µM | [33] > 100 µM | [34] > 100 µM | [35] > 100 µM | [36] > 100 µM | [37] > 100 µM | [38] > 100 µM | [39] > 100 µM | [40] > 100 µM | [41] > 100 µM | [42] > 100 µM | [43] > 100 µM | [44] > 100 µM | [45] > 100 µM | [46] > 100 µM | [47] > 100 µM | [48] > 100 µM | [59] > 100 µM | [50] > 100 µM | [51] > 100 µM | [52] > 100 µM | [53] > 100 µM | [54] > 100 µM | [55] > 100 µM | [56] > 100 µM
> 100 µM: [12]

— ChEMBL document CHEMBL1201862, “PubChem BioAssay data set” (2004)
